From the supplement of paper PMC4862054

Key:
Assay in all cases: normalised viability (% of control), CellTiter-Blue; higher = more viable cells (about 100 = DMSO control)
Settings in all cases: incubation time: 72 h
[1] = test system: HCC1143
Procedure, shortened: (§1)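 After 72 h on compound-loaded 384-well plates, breast cancer cell lines received 2.5 µl CellTiter-Blue reagent for 2 h at 37 °C. Fluorescence at 560/590 nm was scaled per plate so that vehicle was 100 and a positive kill control was 0. The value stands for normalised viability at a single listed concentration of the series.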

[2] = test system: DU-4475
Procedure, shortened: as §1

[3] = test system: CAL-148
Procedure, shortened: as §1

[4] = test system: CAL-85-1
Procedure, shortened: as §1

[5] = test system: BT-474
Procedure, shortened: as §1

[6] = test system: HDQ-P1
Procedure, shortened: as §1

[7] = test system: MDA-MB-231
Procedure, shortened: as §1

[8] = test system: SK-BR-3
Procedure, shortened: as §1

[9] = test system: HCC1937
Procedure, shortened: as §1

[10] = test system: BT-549
Procedure, shortened: as §1

[11] = test system: MDA-MB-468
Procedure, shortened: as §1

CC[C@H](CO)Nc1nc(NCc2ccccc2)c2ncn(C(C)C)c2n1 [Roscovitine]
normalised viability [%]
Settings | 3 nM | 10 nM | 30 nM | 100 nM | 1000 nM | 10000 nM
[1] | – | 84.3 | – | – | 88.1 | 74.7
[2] | 99.9 | – | 101 | 89.7 | – | –
[3] | 77.4 | – | 85.8 | 83.5 | – | –
[4] | 93.3 | – | 88.8 | 90.8 | – | –
[5] | – | 109 | – | – | 96.5 | 79.4
[6] | 101 | – | 103 | 98.3 | – | –
[7] | – | 88 | – | – | 96.5 | 76.6
[8] | – | 90.3 | – | – | 104 | 87
[9] | – | 83.8 | – | – | 105 | 77.2
[10] | – | 83.8 | – | – | 84.4 | 76.4
[11] | – | 93 | – | – | 106 | 83.7

C/C(=C\c1csc(C)n1)[C@@H]1C[C@@H]2O[C@]2(C)CCC[C@H](C)[C@H](O)[C@@H](C)C(=O)C(C)(C)[C@@H](O)CC(=O)N1 [Ixabepilone]
normalised viability [%]
Settings | 0.3 nM | 1 nM | 3 nM | 10 nM | 100 nM | 1000 nM
[1] | – | 79.3 | – | – | 80.7 | 25.6
[2] | 95.4 | – | 77 | 92.4 | – | –
[3] | 95.2 | – | 97.1 | 92.8 | – | –
[4] | 83.4 | – | 87.8 | 88.9 | – | –
[5] | – | 109 | – | – | 115 | 26
[6] | 91.1 | – | 76.4 | 95.3 | – | –
[7] | – | 84.7 | – | – | 51.6 | 16.8
[8] | – | 87.8 | – | – | 82.5 | 12.6
[9] | – | 87.5 | – | – | 89.1 | 17.2
[10] | – | 69.2 | – | – | 96.9 | 19.6
[11] | – | 97.8 | – | – | 88.5 | 45.4

CCNC(=O)CCC/C=C\C[C@@H]1[C@@H](/C=C/[C@@H](O)CCc2ccccc2)[C@H](O)C[C@@H]1O [Bimatoprost]
normalised viability [%]
Settings | 1.65 nM | 5.5 nM | 16.5 nM | 55 nM | 550 nM | 5500 nM
[1] | – | 102 | – | – | 104 | 94.2
[2] | 112 | – | 99.4 | 95.5 | – | –
[3] | 92.6 | – | 90.9 | 95.2 | – | –
[4] | 97.1 | – | 92.5 | 101 | – | –
[5] | – | 112 | – | – | 106 | 127
[6] | 111 | – | 103 | 102 | – | –
[7] | – | 100 | – | – | 97.2 | 97.6
[8] | – | 98.7 | – | – | 110 | 97
[9] | – | 106 | – | – | 99.9 | 89.6
[10] | – | 102 | – | – | 109 | 85.5
[11] | – | 97.1 | – | – | 123 | 111

COc1cc(Nc2c(C#N)cnc3cc(OCCCN4CCN(C)CC4)c(OC)cc23)c(Cl)cc1Cl [Bosutinib]
normalised viability [%]
Settings | 3 nM | 10 nM | 30 nM | 100 nM | 1000 nM | 10000 nM
[1] | – | 83.8 | – | – | 73 | 48.9
[2] | 105 | – | 108 | 86.5 | – | –
[3] | 77.2 | – | 92.3 | 87.6 | – | –
[4] | 92.2 | – | 111 | 96.8 | – | –
[5] | – | 113 | – | – | 94.6 | 6.35
[6] | 109 | – | 121 | 104 | – | –
[7] | – | 98.9 | – | – | 142 | 2.42
[8] | – | 99 | – | – | 86.3 | 1.28
[9] | – | 106 | – | – | 84.9 | 8.95
[10] | – | 91.9 | – | – | 95.4 | 6.38
[11] | – | 104 | – | – | 95.2 | 14.5

COc1c2occc2cc2ccc(=O)oc12 [Methoxsalen]
normalised viability [%]
Settings | 3 nM | 10 nM | 30 nM | 100 nM | 1000 nM | 10000 nM
[1] | – | 91.8 | – | – | 99.1 | 94.2
[2] | 95.6 | – | 111 | 111 | – | –
[3] | 98.7 | – | 95.8 | 100 | – | –
[4] | 92.9 | – | 92.6 | 92.5 | – | –
[5] | – | 123 | – | – | 102 | 117
[6] | 115 | – | 104 | 105 | – | –
[7] | – | 102 | – | – | 99.1 | 112
[8] | – | 104 | – | – | 127 | 104
[9] | – | 68.3 | – | – | 36 | 77.7
[10] | – | 90.9 | – | – | 104 | 82.9
[11] | – | 107 | – | – | 112 | 105
